Data on one compound can be found in EP4371563A1, “COMBINATIONS OF LAROTRECTINIB AND MODERATE CYP3A4 INDUCERS” (Bayer Consumer Care AG, priority 2022, dated 2024).

A short description of data set [1]: In silico model: simulated larotrectinib plasma exposure after a single oral dose with and without itraconazole or rifampicin (model verification against observed data). Also noted: species or system human. As to the method: The effect of different CYP3A4 inhibitors and inducers on the pharmacokinetics of larotrectinib was evaluated using an in silico model. The following drugs were included in the study: The model was correlated by comparison of simulated and observed plasma concentrations in both healthy subjects and cancer patients for midazolam, testosterone, and several of the tested drugs, including larotrectinib alone, larotrectinib + intraconazole, larotrectinib + rifampicin. The following virtual trials were conducted: 12 healthy subjects (50% female) aged 20 to 55 years receiving larotrectinib (100 mg BID) for 14 days in the absence of itraconazole and coadminstered with itraconazole (tablets in fed state; 200 mg QD). A comparison was made between mean simulated and observed plasma concentrations of larotrectinib following a single oral dose of 100 mg larotrectinib in the absence of and co-administered with itraconazole on the 5th day of 7 days of dosing (200 mg QD). Simulated Cmax and AUC and corresponding ratios for larotrectinib are shown below. […] A comparison was made between mean simulated and observed plasma concentrations of larotrectinib following a single oral dose of 100 mg larotrectinib in the absence of and co-administered with rifampicin on the 10th day of 11 days of dosing (600 mg QD). Simulated Cmax and AUC and corresponding ratios for larotrectinib are shown below.

Data set [2] can be described thus: Observed larotrectinib plasma exposure after a single oral dose with and without itraconazole or rifampicin. The format is in vivo, human. The note with it: for AUC / Cmax: human, plasma, po. As to the method:
A comparison was made between mean simulated and observed plasma concentrations of larotrectinib following a single oral dose of 100 mg larotrectinib in the absence of and co-administered with itraconazole on the 5th day of 7 days of dosing (200 mg QD). Simulated Cmax and AUC and corresponding ratios for larotrectinib are shown below. […] A comparison was made between mean simulated and observed plasma concentrations of larotrectinib following a single oral dose of 100 mg larotrectinib in the absence of and co-administered with rifampicin on the 10th day of 11 days of dosing (600 mg QD). Simulated Cmax and AUC and corresponding ratios for larotrectinib are shown below.

A short description of data set [3]: Observed larotrectinib exposure at 100 mg BID without CYP3A4 perpetrators. Conditions: in vivo, 100 mg BID larotrectinib in the absence of any CYP3A4 perpetrators. As to the method: 100 mg BID larotrectinib was administered in the absence of any CYP3A4 perpetrators.
Setting [4] is: Observed, plus rifampicin 600 mg QD / control, single oral dose 100 mg larotrectinib, interval in brackets.
Setting [5] is: coadministration of larotrectinib with rifampicin (600 mg QD).
Setting [6] is: 100 mg, Observed, Control: single oral dose 100 mg larotrectinib in absence of itraconazole, healthy subjects.
Setting [7] is: 100 mg, Observed, Control: single oral dose 100 mg larotrectinib in absence of rifampicin.
The mark [8] stands for this setting: Observed, single oral dose 100 mg larotrectinib plus itraconazole 200 mg QD (5th day of 7 days), healthy subjects.
[9] abbreviates: Observed, single oral dose 100 mg larotrectinib plus rifampicin 600 mg QD (10th day of 11 days).

On to `O=C(Nc1cnn2ccc(N3CCC[C@@H]3c3cc(F)ccc3F)nc12)N1CC[C@H](O)C1` [larotrectinib], for which the results for the “P/O Ratio AUC” value in data set [1] (predicted/observed of the AUC ratio plus itraconazole / control) and in data set [1] (predicted/observed of the AUC ratio plus rifampicin / control) were 1.04 and 0.79, respectively. The “P/O Ratio Cmax” value is 0.79 in data set [1] (predicted/observed of the Cmax ratio plus itraconazole / control) and 0.76 in data set [1] (predicted/observed of the Cmax ratio plus rifampicin / control). Besides, the “Ratio AUC” value in data set [2] (setting [4]) is on record as 0.19 (0.16, 0.24). For the same compound, the “Ratio Cmax” value in data set [2] (setting [4]) is 0.29 (0.23, 0.37). In addition, the “observed reduction in exposure of larotrectinib, AUC” value in data set [2] (setting [5]) is on record as 81%. In data set [2] (setting [5]), the “observed reduction in exposure of larotrectinib, Cmax” value was determined as 71%. The AUC in data set [2] (setting [6]) stood at 1280 ng·h/mL; in data set [2] (setting [7]), 1340 ng·h/mL; in data set [2] (setting [8]), 5520 ng·h/mL; in data set [2] (setting [9]), 259 ng·h/mL; in data set [3] it was 1590 ng·h/mL. In addition, the peak concentration (Cmax) was 497 ng/mL in data set [2] (setting [6]); 435 ng/mL in data set [2] (setting [7]); 1400 ng/mL in data set [2] (setting [8]); 133 ng/mL in data set [2] (setting [9]); 624 ng/mL in data set [3].
